Data reported in EP0111112A1, “Granular pesticidal compositions coated with hydrophobic solids with attendant reduced dermal toxicity” (priority 1982, dated 1984).

Assays:
[1] = Dermal toxicity of pesticidal formulations in male albino rabbits; settings: rabbit, in vivo, topical or ocular, 24 hours contact, observed 14 days
Excerpt: Five male albino rabbits weighing approximately 2.2 to 3.5 kilograms are selected for each dosage level. The hair is shaved from the entire trunk.
The following materials are used in dermal toxicity tests: • (a.) Saran tubing or "vinylite" film VU 1900, 30.5 cm (12") wide, 0.04 millimeter in thickness, and long enough to fit around the rabbit; (b.) Felt cloth bandages measuring approximately 22.9 x 45.7 cm (9" x 18"); (c.) pieces of 3.8 cm (1.5") adhesive tape approximately 35.6 cm (14") long.
Granular material to be evaluated is placed in the center of the plastic film and is moistened with water. The rabbits' underside is then moistened with water, and the animals are placed, belly down, on. the material. The plastic is then brought up and around the animal and secured at each end with strips of adhesive tape. The felt cloth is then placed under the belly and brought up and around the animal and secured to the body with the remaining two strips of adhesive tape. The "cuff" is removed from the test animals 24 hours after dosing, and any remaining material is brushed away. If the test material cannot be removed, the animal is fitted with a fiber collar which prevents the animal from licking the treatment area. […]
The dermal LD50 values (mg/kg/ body weight) are. calculated for experimental data for the compositions evaluated. […]

[2] = Dermal toxicity of pesticidal formulations in male rats; settings: rat, in vivo, topical or ocular, male Wistar rats, 24 hours contact, observed 14 days
Protocol: Five male Wistar rats weighing approximately 209 to 277 g are selected for each dosage level. The hair is shaved from the ventral surface of the abdomen.
Granular material for evaluation is mixed with an equal weight of water on an aluminum foil backed with a plastic adhesive strapping. This preparation is then applied to the shaven ventral surface of the animal and fastened in place with adhesive strapping. After a contact time of 24 hours, the strapping is removed and the skin is washed with soap and water. The animals are then observed for 14 days for skin irritation or mortality. After this observation period, the animals are sacrificed and weighed.
Dermal LD50 values (mg/kg body weight) are calculated from experimental data for the compositions evaluated. The LD50 values obtained are averaged. […] Compositions A and B of Table III are as defined in Table I.

SMILES: CCOP(=S)(OCC)SCSC(C)(C)C [O,O-diethyl S-{[(1,1-dimethylethyl)-thio]methyl}phosphorodithioate]
- LD50 at 336 h [1]: 1 to 2 mg/kg
- LD50 at 336 h [2]: 1 to 2 mg/kg
